# Activity calls are given as the source filed them. The calls are words filed in the database; no cut-off is given here.
# What was measured:
# [1] = biological target: Glycogen synthase kinase-3 beta (Homo sapiens, UniProt P49841); experiment: Inhibition of GSK3beta (unknown origin)
# Protein kinase C (PKC) = experiment: Inhibition of PKC (unknown origin); format: protein assay, Homo sapiens
# [2] = biological target: T1, Tyrosine-protein kinase JAK3 (Homo sapiens, UniProt P52333)
# T1 sequence (P52333 whole entry): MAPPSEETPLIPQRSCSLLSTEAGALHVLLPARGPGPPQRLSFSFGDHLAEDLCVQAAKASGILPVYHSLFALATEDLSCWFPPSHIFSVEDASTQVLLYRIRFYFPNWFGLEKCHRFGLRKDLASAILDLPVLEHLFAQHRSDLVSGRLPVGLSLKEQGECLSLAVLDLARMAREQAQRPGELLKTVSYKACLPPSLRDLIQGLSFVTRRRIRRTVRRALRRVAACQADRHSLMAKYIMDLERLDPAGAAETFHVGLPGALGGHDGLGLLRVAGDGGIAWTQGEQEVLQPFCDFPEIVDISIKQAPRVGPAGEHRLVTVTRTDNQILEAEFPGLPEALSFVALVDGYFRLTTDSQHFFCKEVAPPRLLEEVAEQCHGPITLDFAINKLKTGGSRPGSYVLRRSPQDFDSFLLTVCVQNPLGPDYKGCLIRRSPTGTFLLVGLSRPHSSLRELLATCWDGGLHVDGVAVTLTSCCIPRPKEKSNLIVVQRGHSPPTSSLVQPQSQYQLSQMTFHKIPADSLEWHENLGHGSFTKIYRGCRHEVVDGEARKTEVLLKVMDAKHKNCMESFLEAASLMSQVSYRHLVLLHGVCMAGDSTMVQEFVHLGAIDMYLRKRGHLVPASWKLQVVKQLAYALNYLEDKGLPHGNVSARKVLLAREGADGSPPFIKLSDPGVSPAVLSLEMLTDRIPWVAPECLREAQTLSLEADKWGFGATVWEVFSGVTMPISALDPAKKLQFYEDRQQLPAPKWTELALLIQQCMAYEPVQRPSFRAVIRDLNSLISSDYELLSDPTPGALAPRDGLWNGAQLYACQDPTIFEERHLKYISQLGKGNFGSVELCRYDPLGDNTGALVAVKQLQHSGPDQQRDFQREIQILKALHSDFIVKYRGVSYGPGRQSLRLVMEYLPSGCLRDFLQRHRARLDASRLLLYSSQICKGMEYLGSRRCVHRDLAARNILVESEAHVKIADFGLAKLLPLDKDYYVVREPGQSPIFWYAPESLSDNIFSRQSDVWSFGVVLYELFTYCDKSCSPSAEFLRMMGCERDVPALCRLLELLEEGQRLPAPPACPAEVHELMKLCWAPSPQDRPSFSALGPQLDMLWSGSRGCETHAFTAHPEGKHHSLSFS
# Description: Inhibition of JAK3 (unknown origin) in presence of ATP by radiometric assay
# [3] = biological target: G protein-coupled receptor kinase 5 (Homo sapiens, UniProt P34947); experiment: Inhibition of GRK5 (unknown origin) by trFRET binding assay
# [4] = biological target: Mitogen-activated protein kinase kinase kinase kinase 2 (Homo sapiens, UniProt Q12851); experiment: Inhibition of MAP4K2 (unknown origin) by trFRET binding assay
# [5] = biological target: Tyrosine-protein kinase BTK (Homo sapiens, UniProt Q06187); experiment: Inhibition of BTK (unknown origin) by trFRET binding assay
# [6] = biological target: Leukocyte tyrosine kinase receptor (Homo sapiens, UniProt P29376); experiment: Inhibition of LTK (unknown origin) by trFRET binding assay
# [7] = biological target: Fibroblast growth factor receptor 1 (Homo sapiens, UniProt P11362); experiment: Inhibition of FGFR1 (unknown origin) by trFRET binding assay
# [8] = biological target: T1, Tyrosine-protein kinase JAK3; experiment: Inhibition of JAK3 (unknown origin) by trFRET binding assay
# [9] = biological target: Serine/threonine-protein kinase 33 (Homo sapiens, UniProt Q9BYT3); experiment: Inhibition of STK33 (unknown origin) by trFRET binding assay
# [10] = biological target: Proto-oncogene tyrosine-protein kinase receptor Ret (Homo sapiens, UniProt P07949); experiment: Inhibition of RET (unknown origin) by trFRET binding assay
# Homo sapiens = organism: Homo sapiens; experiment: Inhibition of AMPK (unknown origin) at 1 uM relative to control
# [11] = biological target: MAP kinase-activated protein kinase 2 (Homo sapiens) (UniProt P49137); details: dose 500.0 nM
# Sequence of MAP kinase-activated protein kinase 2 (Homo sapiens) (P49137 whole entry, looked up, canonical isoform): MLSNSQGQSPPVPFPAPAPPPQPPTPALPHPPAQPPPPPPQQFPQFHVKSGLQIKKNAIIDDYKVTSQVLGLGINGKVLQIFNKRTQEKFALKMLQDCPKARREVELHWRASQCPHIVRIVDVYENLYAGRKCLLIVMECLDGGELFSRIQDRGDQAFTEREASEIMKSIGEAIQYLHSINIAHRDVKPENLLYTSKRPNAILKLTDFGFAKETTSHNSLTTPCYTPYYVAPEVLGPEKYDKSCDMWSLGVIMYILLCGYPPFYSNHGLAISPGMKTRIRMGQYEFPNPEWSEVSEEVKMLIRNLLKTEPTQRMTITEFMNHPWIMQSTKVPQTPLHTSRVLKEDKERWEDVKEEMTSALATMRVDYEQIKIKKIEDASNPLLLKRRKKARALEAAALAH
# Description: Inhibition of MAPKAPK2 (unknown origin) at 500 nM relative to control
# [12] = biological target: Phosphatidylinositol 4,5-bisphosphate 3-kinase catalytic subunit gamma isoform (Homo sapiens) (UniProt P48736); details: dose 500.0 nM
# Description: Inhibition of PIK3CG (unknown origin) at 500 nM relative to control
# CD4+ve Th [13] = details: Homo sapiens, dose 50-100 nM, time 1.5 hrs
# [14] = biological target: G protein-coupled receptor kinase 6 (Homo sapiens) (UniProt P43250); details: dose 500.0 nM
# Sequence of G protein-coupled receptor kinase 6 (Homo sapiens) (P43250 whole entry, looked up): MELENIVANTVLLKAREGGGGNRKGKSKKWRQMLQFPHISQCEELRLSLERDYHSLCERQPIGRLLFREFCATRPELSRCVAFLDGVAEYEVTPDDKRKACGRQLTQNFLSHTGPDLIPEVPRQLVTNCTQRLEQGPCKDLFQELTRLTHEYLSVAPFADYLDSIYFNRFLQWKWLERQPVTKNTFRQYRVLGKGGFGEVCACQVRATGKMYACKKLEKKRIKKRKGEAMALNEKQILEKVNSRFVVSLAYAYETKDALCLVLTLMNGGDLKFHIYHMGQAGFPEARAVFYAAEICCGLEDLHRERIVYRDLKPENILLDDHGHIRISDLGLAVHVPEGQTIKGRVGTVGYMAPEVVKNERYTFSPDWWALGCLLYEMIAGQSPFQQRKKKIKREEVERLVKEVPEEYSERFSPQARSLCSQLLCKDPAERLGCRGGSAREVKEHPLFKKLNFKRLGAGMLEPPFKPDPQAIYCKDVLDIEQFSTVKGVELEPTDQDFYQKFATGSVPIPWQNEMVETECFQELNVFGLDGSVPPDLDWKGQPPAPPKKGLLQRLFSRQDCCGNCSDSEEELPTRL
# Description: Inhibition of GRK6 (unknown origin) at 500 nM relative to control
# [15] = biological target: T2, Tyrosine-protein kinase Fyn (Homo sapiens, UniProt P06241); experiment: Inhibition of FYN (unknown origin) by trFRET binding assay
# [16] = biological target: Homeodomain-interacting protein kinase 1 (Homo sapiens) (UniProt Q86Z02); details: dose 500.0 nM
# Description: Inhibition of HIPK1 (unknown origin) at 500 nM relative to control
# [17] = test system: Mast/stem cell growth factor receptor Kit (Homo sapiens), P10721 [V559D,V654A]; details: dose 500.0 nM
# [18] = biological target: Dual specificity protein kinase CLK3 (Homo sapiens) (UniProt P49761); details: dose 500.0 nM
# Description: Inhibition of CLK3 (unknown origin) at 500 nM relative to control
# [19] = biological target: Macrophage-stimulating protein receptor (Homo sapiens) (UniProt Q04912); details: dose 500.0 nM
# Description: Inhibition of RON (unknown origin) at 500 nM relative to control
# [20] = biological target: Serine/threonine-protein kinase haspin (Homo sapiens) (UniProt Q8TF76); details: dose 500.0 nM
# Description: Inhibition of GSG2 (unknown origin) at 500 nM relative to control
# CD4+ve Th [21] = details: Homo sapiens, dose <= 1000.0 nM, time 1.5 hrs
# [22] = biological target: Serine/threonine-protein kinase D1 (Homo sapiens) (UniProt Q15139); details: dose 500.0 nM
# Description: Inhibition of PKC-mu (unknown origin) at 500 nM relative to control
# [23] = biological target: Tyrosine-protein kinase CSK (Homo sapiens) (UniProt P41240); details: dose 500.0 nM
# Description: Inhibition of CSK (unknown origin) at 500 nM relative to control
# [24] = test system: Fibroblast growth factor receptor 3 (Homo sapiens), P22607 [G697C]; details: dose 500.0 nM
# [25] = biological target: T3, Tyrosine-protein kinase JAK3 (Homo sapiens) (UniProt P52333); details: dose 500.0 nM
# T3 sequence (whole entry): T1 sequence (P52333 whole entry)
# Description: Inhibition of JAK3 (unknown origin) at 500 nM relative to control
# [26] = biological target: T3, Tyrosine-protein kinase JAK3 (Homo sapiens); details: HeLa, dose 100.0 nM, time 2.0 hrs
# CD4+ve Th [27] = details: Homo sapiens, dose <= 1000.0 nM, time 1.5 hrs; remark: listed apart in the source
# [28] = biological target: T3, Tyrosine-protein kinase JAK3 (Homo sapiens); details: HeLa, dose 100.0 nM, time 1.0 hrs
# [29] = biological target: Mitogen-activated protein kinase kinase kinase kinase 4 (Homo sapiens) (UniProt O95819); details: dose 500.0 nM
# Description: Inhibition of NIK (unknown origin) at 500 nM relative to control
# [30] = biological target: STE20/SPS1-related proline-alanine-rich protein kinase (Homo sapiens) (UniProt Q9UEW8); details: dose 500.0 nM
# Description: Inhibition of STK39 (unknown origin) at 500 nM relative to control
# [31] = biological target: MAP kinase-activated protein kinase 3 (Homo sapiens) (UniProt Q16644); details: dose 500.0 nM
# Description: Inhibition of MAPKAPK3 (unknown origin) at 500 nM relative to control
# [32] = biological target: Serine/threonine-protein kinase Nek6 (Homo sapiens) (UniProt Q9HC98); details: dose 500.0 nM
# Description: Inhibition of NEK6 (unknown origin) at 500 nM relative to control
# [33] = biological target: Receptor tyrosine-protein kinase erbB-4 (Homo sapiens) (UniProt Q15303); details: dose 500.0 nM
# Description: Inhibition of ERBB4 (unknown origin) at 500 nM relative to control
# [34] = test system: NPM/ALK (Nucleophosmin/ALK tyrosine kinase receptor) (Homo sapiens), Q9UM73+P06748 [F1174L]; details: dose 500.0 nM
# Description: Inhibition of NPM1ALK F1174L mutant (unknown origin) at 500 nM relative to control
# cells [35] = details: Homo sapiens, CD4+ve Th, 1.5 h, read-out: INH
# [36] = biological target: Phosphatidylinositol 3-kinase catalytic subunit type 3 (Homo sapiens) (UniProt Q8NEB9); details: dose 500.0 nM
# Description: Inhibition of PIK3C3 (unknown origin) at 500 nM relative to control
# [37] = biological target: Hepatocyte growth factor-like protein (Homo sapiens) (UniProt P26927); details: dose 500.0 nM
# Description: Inhibition of MST1 (unknown origin) at 500 nM relative to control
# [38] = biological target: Mitogen-activated protein kinase 14 (Homo sapiens) (UniProt Q16539); details: dose 500.0 nM
# Sequence of Mitogen-activated protein kinase 14 (Homo sapiens) (Q16539 whole entry): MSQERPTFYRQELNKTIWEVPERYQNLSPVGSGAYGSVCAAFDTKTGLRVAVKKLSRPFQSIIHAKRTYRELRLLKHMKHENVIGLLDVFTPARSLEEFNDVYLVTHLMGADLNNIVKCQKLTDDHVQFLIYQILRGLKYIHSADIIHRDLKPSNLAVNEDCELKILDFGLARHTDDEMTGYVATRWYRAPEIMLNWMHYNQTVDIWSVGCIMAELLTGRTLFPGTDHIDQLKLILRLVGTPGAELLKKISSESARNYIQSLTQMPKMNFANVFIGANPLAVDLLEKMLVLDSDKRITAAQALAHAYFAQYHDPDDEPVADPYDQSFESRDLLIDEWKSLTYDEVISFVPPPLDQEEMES
# Description: Inhibition of p38-alpha (unknown origin) at 500 nM relative to control
# [39] = biological target: T2, Tyrosine-protein kinase Fyn; details: dose 500.0 nM
# Description: Inhibition of wild-type FYN (unknown origin) at 500 nM relative to control
# cells [40] = details: Homo sapiens, CD4+ve Th, 1.5 h, read-out: INH; remark: listed apart in the source
# [41] = biological target: Misshapen-like kinase 1 (Homo sapiens) (UniProt Q8N4C8); details: dose 100.0 nM
# Description: Inhibition of MINK1 (unknown origin) at 100 nM relative to control
# [42] = biological target: Mitogen-activated protein kinase kinase kinase 11 (Homo sapiens) (UniProt Q16584); details: dose 100.0 nM
# Description: Inhibition of MAP3K11 (unknown origin) at 100 nM relative to control
# [43] = test system: Leucine-rich repeat serine/threonine-protein kinase 2 (Homo sapiens), Q5S007 [I2020T]; details: dose 100.0 nM
# [44] = biological target: Tyrosine-protein kinase Blk (Homo sapiens) (UniProt P51451); details: dose 100.0 nM
# Description: Inhibition of BLK (unknown origin) at 100 nM relative to control
# [45] = test system: Epidermal growth factor receptor (Homo sapiens), P00533 [UNDEFINED MUTATION]; details: dose 100.0 nM
# Sequence of Epidermal growth factor receptor (Homo sapiens), P00533 [UNDEFINED MUTATION] (P00533 whole entry, looked up, change not shown): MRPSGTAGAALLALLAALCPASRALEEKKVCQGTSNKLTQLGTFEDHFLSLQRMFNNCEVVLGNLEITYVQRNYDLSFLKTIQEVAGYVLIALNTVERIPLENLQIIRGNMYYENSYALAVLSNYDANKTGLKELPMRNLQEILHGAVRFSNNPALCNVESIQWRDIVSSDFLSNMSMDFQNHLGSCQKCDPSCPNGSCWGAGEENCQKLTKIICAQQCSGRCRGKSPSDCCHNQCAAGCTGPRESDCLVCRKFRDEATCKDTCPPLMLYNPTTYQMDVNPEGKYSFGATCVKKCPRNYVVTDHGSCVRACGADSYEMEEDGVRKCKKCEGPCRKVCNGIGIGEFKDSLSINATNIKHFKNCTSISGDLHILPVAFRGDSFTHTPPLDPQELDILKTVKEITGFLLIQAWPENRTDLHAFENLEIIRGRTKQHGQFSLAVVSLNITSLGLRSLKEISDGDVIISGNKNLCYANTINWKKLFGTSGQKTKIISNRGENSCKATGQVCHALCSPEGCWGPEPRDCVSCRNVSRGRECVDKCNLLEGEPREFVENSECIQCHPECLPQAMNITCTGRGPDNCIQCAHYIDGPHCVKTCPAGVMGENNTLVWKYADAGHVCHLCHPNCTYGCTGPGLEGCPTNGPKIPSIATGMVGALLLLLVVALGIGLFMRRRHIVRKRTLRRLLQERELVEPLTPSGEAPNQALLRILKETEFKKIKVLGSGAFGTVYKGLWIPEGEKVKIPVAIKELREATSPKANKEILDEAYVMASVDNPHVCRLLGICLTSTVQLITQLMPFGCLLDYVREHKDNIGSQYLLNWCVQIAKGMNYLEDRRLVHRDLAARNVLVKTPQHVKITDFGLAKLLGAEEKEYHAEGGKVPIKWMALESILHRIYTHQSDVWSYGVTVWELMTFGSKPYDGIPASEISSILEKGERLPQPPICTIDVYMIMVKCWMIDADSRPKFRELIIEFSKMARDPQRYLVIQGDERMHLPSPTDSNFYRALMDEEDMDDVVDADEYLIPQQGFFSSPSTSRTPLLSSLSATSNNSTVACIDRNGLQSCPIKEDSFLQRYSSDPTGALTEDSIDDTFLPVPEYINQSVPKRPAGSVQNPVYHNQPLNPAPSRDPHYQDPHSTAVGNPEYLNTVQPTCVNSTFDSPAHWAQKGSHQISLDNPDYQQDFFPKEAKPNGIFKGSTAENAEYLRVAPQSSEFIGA
# Description: Inhibition of EGFR d747-752/P753S double mutant (unknown origin) at 100 nM relative to control
# [46] = biological target: Protein kinase C beta type (Homo sapiens) (UniProt P05771); details: dose 100.0 nM
# Sequence of Protein kinase C beta type (Homo sapiens) (P05771 2-671 limits assumed): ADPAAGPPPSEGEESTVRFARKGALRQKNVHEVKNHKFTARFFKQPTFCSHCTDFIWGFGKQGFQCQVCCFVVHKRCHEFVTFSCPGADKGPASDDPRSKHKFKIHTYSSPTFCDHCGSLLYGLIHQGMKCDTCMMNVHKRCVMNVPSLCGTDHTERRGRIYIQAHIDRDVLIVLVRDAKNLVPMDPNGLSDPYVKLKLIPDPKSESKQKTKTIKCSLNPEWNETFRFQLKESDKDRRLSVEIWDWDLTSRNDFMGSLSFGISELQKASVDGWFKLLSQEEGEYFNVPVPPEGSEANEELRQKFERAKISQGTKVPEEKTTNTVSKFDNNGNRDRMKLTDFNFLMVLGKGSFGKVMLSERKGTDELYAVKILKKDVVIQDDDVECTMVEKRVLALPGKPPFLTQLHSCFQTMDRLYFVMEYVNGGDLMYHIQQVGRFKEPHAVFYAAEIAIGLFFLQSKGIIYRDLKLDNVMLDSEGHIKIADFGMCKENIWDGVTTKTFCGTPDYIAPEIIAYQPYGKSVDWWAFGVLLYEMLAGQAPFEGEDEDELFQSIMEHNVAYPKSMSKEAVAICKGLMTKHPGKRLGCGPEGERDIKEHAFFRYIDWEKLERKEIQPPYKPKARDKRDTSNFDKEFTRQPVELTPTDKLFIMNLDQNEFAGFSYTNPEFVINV
# Description: Inhibition of PKC-beta2 (unknown origin) at 100 nM relative to control
# [47] = biological target: Serine/threonine-protein kinase N2 (Homo sapiens) (UniProt Q16513); details: dose 100.0 nM
# Description: Inhibition of PRK2 (unknown origin) at 100 nM relative to control
# [48] = biological target: T3, Tyrosine-protein kinase JAK3 (Homo sapiens); details: dose 100.0 nM
# Description: Inhibition of JAK3 (unknown origin) at 100 nM relative to control
# [49] = biological target: Tyrosine-protein kinase ITK/TSK (Homo sapiens) (UniProt Q08881); details: dose 100.0 nM
# Sequence of Tyrosine-protein kinase ITK/TSK (Homo sapiens) (Q08881 whole entry): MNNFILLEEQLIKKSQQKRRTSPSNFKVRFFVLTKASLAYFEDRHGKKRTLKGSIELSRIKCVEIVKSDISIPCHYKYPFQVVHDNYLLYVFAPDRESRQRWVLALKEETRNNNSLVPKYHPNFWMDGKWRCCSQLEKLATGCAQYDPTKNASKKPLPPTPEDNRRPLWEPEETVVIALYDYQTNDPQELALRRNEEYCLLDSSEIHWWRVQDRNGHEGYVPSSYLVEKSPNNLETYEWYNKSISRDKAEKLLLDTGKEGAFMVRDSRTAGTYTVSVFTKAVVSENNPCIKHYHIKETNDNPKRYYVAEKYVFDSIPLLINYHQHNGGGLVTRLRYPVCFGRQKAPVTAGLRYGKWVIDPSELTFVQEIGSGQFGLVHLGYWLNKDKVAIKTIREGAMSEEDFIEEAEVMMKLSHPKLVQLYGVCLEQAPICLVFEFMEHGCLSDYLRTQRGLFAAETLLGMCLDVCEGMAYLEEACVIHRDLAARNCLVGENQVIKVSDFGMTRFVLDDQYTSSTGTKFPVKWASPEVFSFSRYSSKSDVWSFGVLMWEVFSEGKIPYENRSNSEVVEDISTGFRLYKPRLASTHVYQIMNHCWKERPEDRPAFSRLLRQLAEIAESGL
# Description: Inhibition of ITK (unknown origin) at 100 nM relative to control
# [50] = biological target: MAP kinase-activated protein kinase 2 (Homo sapiens) (UniProt P49137); details: dose 100.0 nM
# Description: Inhibition of MAPKAPK2 (unknown origin) at 100 nM relative to control
# [51] = test system: Leucine-rich repeat serine/threonine-protein kinase 2 (Homo sapiens), Q5S007 [G2019S]; details: dose 100.0 nM
# [52] = biological target: Tyrosine-protein kinase JAK2 (Homo sapiens) (UniProt O60674); details: dose 100.0 nM
# Description: Inhibition of JAK2 (unknown origin) at 100 nM relative to control
# [53] = biological target: Leucine-rich repeat serine/threonine-protein kinase 2 (Homo sapiens) (UniProt Q5S007); details: dose 100.0 nM
# Description: Inhibition of wild-type LRRK2 (unknown origin) at 100 nM relative to control
# [54] = biological target: Ribosomal protein S6 kinase alpha-2 (Homo sapiens) (UniProt Q15349); details: dose 100.0 nM
# Sequence of Ribosomal protein S6 kinase alpha-2 (Homo sapiens) (Q15349 whole entry): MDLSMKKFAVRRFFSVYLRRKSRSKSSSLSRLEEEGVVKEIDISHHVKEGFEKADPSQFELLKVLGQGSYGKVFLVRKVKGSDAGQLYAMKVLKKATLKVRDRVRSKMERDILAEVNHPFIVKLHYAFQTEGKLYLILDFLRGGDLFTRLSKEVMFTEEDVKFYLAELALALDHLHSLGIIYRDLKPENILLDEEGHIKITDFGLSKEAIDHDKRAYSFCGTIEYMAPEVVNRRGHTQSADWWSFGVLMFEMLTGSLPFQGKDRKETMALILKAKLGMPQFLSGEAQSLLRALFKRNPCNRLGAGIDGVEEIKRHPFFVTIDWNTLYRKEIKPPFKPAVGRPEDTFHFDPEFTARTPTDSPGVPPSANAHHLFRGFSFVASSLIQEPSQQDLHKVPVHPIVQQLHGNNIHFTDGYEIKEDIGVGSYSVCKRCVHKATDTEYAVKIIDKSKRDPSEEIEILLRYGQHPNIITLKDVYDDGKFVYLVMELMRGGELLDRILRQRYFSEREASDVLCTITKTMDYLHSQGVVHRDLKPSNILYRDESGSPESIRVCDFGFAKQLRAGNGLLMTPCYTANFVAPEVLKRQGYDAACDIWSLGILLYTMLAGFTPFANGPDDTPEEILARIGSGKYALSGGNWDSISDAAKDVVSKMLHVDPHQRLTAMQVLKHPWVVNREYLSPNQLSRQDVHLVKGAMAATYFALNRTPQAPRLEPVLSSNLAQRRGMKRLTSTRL
# Description: Inhibition of RPS6KA2 (unknown origin) at 100 nM relative to control
# [55] = biological target: Muscle, skeletal receptor tyrosine-protein kinase (Homo sapiens) (UniProt O15146); details: dose 100.0 nM
# Description: Inhibition of MUSK (unknown origin) at 100 nM relative to control
# [56] = biological target: Protein kinase C delta type (Homo sapiens) (UniProt Q05655); details: dose 100.0 nM
# Description: Inhibition of PKC-delta (unknown origin) at 100 nM relative to control
# [57] = biological target: Ribosomal protein S6 kinase alpha-6 (Homo sapiens) (UniProt Q9UK32); details: dose 100.0 nM
# Description: Inhibition of RPS6KA6 (unknown origin) at 100 nM relative to control
# [58] = biological target: Mitogen-activated protein kinase kinase kinase kinase 2 (Homo sapiens) (UniProt Q12851); details: dose 100.0 nM
# Description: Inhibition of MAP4K2 (unknown origin) at 100 nM relative to control
# [59] = biological target: Rho-associated protein kinase 1 (Homo sapiens) (UniProt Q13464); details: dose 100.0 nM
# Description: Inhibition of ROCK1 (unknown origin) at 100 nM relative to control
# [60] = test system: Leucine-rich repeat serine/threonine-protein kinase 2 (Homo sapiens), Q5S007 [R1441C]; details: dose 100.0 nM
# [61] = biological target: MAP kinase-activated protein kinase 5 (Homo sapiens) (UniProt Q8IW41); details: dose 100.0 nM
# Sequence of MAP kinase-activated protein kinase 5 (Homo sapiens) (Q8IW41 whole entry): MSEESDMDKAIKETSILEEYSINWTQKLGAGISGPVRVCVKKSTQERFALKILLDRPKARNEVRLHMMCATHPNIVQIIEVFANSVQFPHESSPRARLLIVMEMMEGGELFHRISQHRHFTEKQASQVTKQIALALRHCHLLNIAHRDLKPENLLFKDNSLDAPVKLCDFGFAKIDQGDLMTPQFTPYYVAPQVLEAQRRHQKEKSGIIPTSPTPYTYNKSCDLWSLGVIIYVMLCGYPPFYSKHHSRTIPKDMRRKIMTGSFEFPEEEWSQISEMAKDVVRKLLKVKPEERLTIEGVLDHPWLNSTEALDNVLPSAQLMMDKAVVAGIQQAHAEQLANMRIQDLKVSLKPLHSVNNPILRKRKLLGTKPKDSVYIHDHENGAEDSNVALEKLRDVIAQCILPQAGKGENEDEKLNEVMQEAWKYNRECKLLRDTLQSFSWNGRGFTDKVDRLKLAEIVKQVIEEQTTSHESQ
# Description: Inhibition of MAPKAPK5 (unknown origin) at 100 nM relative to control
# [62] = biological target: Non-receptor tyrosine-protein kinase TNK1 (Homo sapiens) (UniProt Q13470); details: dose 100.0 nM
# Description: Inhibition of TNK1 (unknown origin) at 100 nM relative to control
# [63] = biological target: Vascular endothelial growth factor receptor 2 (Homo sapiens, UniProt P35968); details: dose 100.0 nM
# Description: Inhibition of VEGFR2 (unknown origin) at 100 nM relative to control
# [64] = test system: Epidermal growth factor receptor (Homo sapiens), P00533 [UNDEFINED MUTATION]; details: dose 500.0 nM
# Description: Inhibition of EGFR d747-752/P753S double mutant (unknown origin) at 500 nM relative to control
compound,measurement,setting,value
CC(C)(O)C(=O)N1CCN(c2ccc(C(F)(F)F)c(C3=C(c4c[nH]c5ccccc45)C(=O)NC3=O)c2)CC1,IC50,[1],< 1000 nM
same,IC50,Protein kinase C (PKC),< 1 µM
Cn1c(=O)n([C@@H]2CC[C@@H](O)c3ccccc32)c2cc(-n3cnc4ccc(C#N)cc43)ccc21,IC50,[2],0.9 nM
C=CC(=O)Nc1nc2cnc3[nH]ccc3c2n1C,IC50,[3],9.4 µM
same,IC50,[4],7.4 µM
same,IC50,[5],1250 nM
same,IC50,[2],3 nM
same,IC50,[6],5.6 µM
same,IC50,[7],3.1 µM
same,IC50,[8],2 nM
same,IC50,[9],7.1 µM
same,IC50,[10],7.8 µM
CN(C)C/C=C/C(=O)Nc1nc2cnc3[nH]ccc3c2n1C,IC50,[2],7 nM
CC(C)(C)[C@@H](NC(=O)c1c[nH]c2ncc(C3CC3)nc12)C(=O)N1CC(C#N)C1,inhibition,Homo sapiens,67%
CN(C)C(=O)C(C#N)=Cc1ccc(-c2nc3cnc4[nH]ccc4c3n2C2CCCCC2)o1 (mixture of isomers),inhibition,[11],53%
same,inhibition,[12],141%
same,inhibition,CD4+ve Th [13],Active
same,inhibition,[14],62%
same,IC50,[15],660 nM
same,inhibition,[16],100%
same,inhibition,[17],142%
same,inhibition,[18],65%
same,inhibition,[19],145%
same,inhibition,[20],133%
same,inhibition,CD4+ve Th [21],inactive
same,inhibition,[22],100%
same,inhibition,[23],100%
same,inhibition,[24],135%
same,inhibition,[25],11%
same,inhibition,[26],Active
same,inhibition,CD4+ve Th [27],inactive
same,inhibition,[28],Active
same,inhibition,[29],100%
same,inhibition,[30],148%
same,inhibition,[31],100%
same,inhibition,[32],100%
same,inhibition,[33],100%
same,inhibition,[34],100%
same,inhibition at 0.3 µM,cells [35],100%
same,inhibition,[36],100%
same,inhibition,[37],100%
same,inhibition,[38],100%
same,inhibition,[39],135%
same,inhibition at 0.3 µM,cells [40],100%
CC1CCCCC1n1c(-c2ccc(C=C(C#N)C(=O)N(C)C)o2)nc2cnc3[nH]ccc3c21 (mixture of isomers),inhibition,[41],100%
same,inhibition,[42],49%
same,inhibition,[43],40%
same,inhibition,[44],57%
same,inhibition,CD4+ve Th [13],Active
same,inhibition,[45],100%
same,inhibition,[46],31%
same,inhibition,CD4+ve Th [21],inactive
same,inhibition,[47],48%
same,inhibition,[48],3%
same,inhibition,[49],52%
same,inhibition,[50],60%
same,inhibition,[25],3%
same,inhibition,[51],48%
same,inhibition,[52],60%
same,inhibition,CD4+ve Th [27],inactive
same,inhibition,[53],34%
same,inhibition,[54],26%
same,inhibition,[55],61%
same,inhibition,[56],60%
same,inhibition,[57],40%
same,inhibition,[58],54%
same,inhibition,[59],61%
same,inhibition,[60],22%
same,inhibition,[61],100%
same,inhibition at 0.3 µM,cells [35],100%
same,inhibition,[62],51%
same,inhibition,[63],60%
same,inhibition,[64],100%
same,inhibition at 0.3 µM,cells [40],100%

# Source: ChEMBL document CHEMBL5653628, “Selective JAK3 Inhibitors with a Covalent Reversible Binding Mode Targeting a New Induced Fit Binding Pocket” (Cell Chem Biol, 2016)
